Source: US12296014B2, “External preparation comprising non-lamellar liquid crystal-forming lipid” (FARNEX INCORPORATED, priority 2018, dated 2025)

Legend:
[1] = Viscosity of the synthesized amphipathic compound; type: physicochemical; details: at shear velocity of 92 l/s
Procedure: Specifically, the amphipathic compound represented by the general formula (I) has a viscosity of preferably 15.0 Pa-s or less, more preferably 11.0 Pa-s or less, further preferably 6.0 Pa-s or less, by itself, as measured at 25° C. This viscosity can be measured using, for example, a viscosity and viscoelasticity measuring apparatus (Gemini II, Malvern Instruments Ltd.) at a temperature of 25° C.
^1H-NMR and viscosity of the obtained compound were measured.

[2] = cited from earlier work

Compound	Viscosity [1]	pKa [2]
CC(C)=CCC/C(C)=C/CCC(C)=CCCC(=O)OCC(O)CO (racemic) [Example 3, Mono-O-(5,9,13-trimethyltetradeca-4,8,12-trienoyl)glycerol]	0.26 Pa·s	
CC(C)=CCC/C(C)=C/CC/C(C)=C/CCC(C)=CCCC(=O)OCC(O)CO (racemic) [Example 6, Mono-O-(5,9,13,17-tetramethyloctadeca-4,8,12,16-tetraenoyl)glycerol]	0.37 Pa·s	
CC(=CCCC(=O)OCC(O)CO)CCCC(C)CCCC(C)C (stereo not shown) [Example 1, Mono-O-(5,9,13-trimethyltetradec-4-enoyl)glycerol]	0.48 Pa·s	
CC1(C)O[C@@H]2C[C@H]3[C@@H]4CCC5=CC(=O)C=C[C@]5(C)[C@@]4(F)[C@@H](O)C[C@]3(C)[C@]2(C(=O)CO)O1 [triamcinolone acetonide]		13.37
